Results as given in US20130212738A1, “COMPOSITION FOR PHYTOCHELATIN TRANSPORT” (POSTECH ACADEMY-INDUSTRY FOUNDATION, priority 2010, published 2013).

Experiments:
AtABCC2 = target: T1, AtABCC2 (Arabidopsis thaliana, UniProt Q42093); type: biochemical, A. thaliana
T1 construct: expressed in transfected cells; host or cells: Saccharomyces cerevisiae SM7 (ycf1/yhl035c/yll015w/yll048c-deficient, expressing TaPCS1); microsomal vesicles

[1] = test system: A. thaliana mesophyll vacuoles; assay: PC2 transport into intact vacuoles isolated from A. thaliana mesophyll protoplasts; type: biochemical
AtABCC1 = target: T2, AtABCC1 (Arabidopsis thaliana, UniProt Q9C8G9); assay: PC2 transport into microsomal vesicles of SM7 yeast expressing AtABCC1; type: biochemical, A. thaliana; conditions: vanadate 1 mM, NH4Cl 5 mM, PC 25 μM
T2 construct: expressed in transfected cells; host or cells: Saccharomyces cerevisiae SM7 (ycf1/yhl035c/yll015w/yll048c-deficient, expressing TaPCS1); microsomal vesicles

[2] = test system: atabcc1 atabcc2 double knock-out A. thaliana; conditions: in vivo
[3] = target: PC2-As complex (phytochelatin PC2 in complex with As(III)); assay: cell-based or functional assay

Row | Compound | growth of the atabcc1 atabcc2 knock-out line compared with the wild type [2] | concentration of PC at half maximum of the absorption (transport) activities, 35S-PC2 uptake into yeast SM7 microsomal vesicles [3] [µM] | other results
1 | [O]=[V]([O-])([O-])[O-] [vanadate] | – | – | inhibition of absorption of PC2—As complex into the yeast vesicle (AtABCC2): remarkably reduced; residual transport activity (PC transport of isolated vacuoles) [1]: 25±7%; inhibition of absorption of PC2—As complex into the yeast vesicle (AtABCC1): remarkably reduced
2 | [Cd] [Cd, cadmium] | dramatically inhibited | – | –
3 | O=[As]([O-])([O-])O.[Na+].[Na+] [As(V), Na2HAsO4] | dramatically inhibited | – | –
4 | arsenite | – | – | transport of arsenic in a non-chelated form (ICP-MS) (AtABCC2): not transported
5 | AtABCC2 (from UniProt Q42093 1-1623) | – | 350 | –
6 | AtABCC1 (from UniProt Q9C8G9 1-1622) | – | 350 | –
